# Test results: patent publication US20210299064A1, “METHOD OF TREATING PATIENTS WITH LENNOX-GASTAUT SYNDROME” (ZOGENIX INTERNATIONAL LIMITED, priority 2020, published 2021)
# Where a name gives a salt, the structure may show the parent alone. Read-outs that look alike come from different tables or passages of the source.
# Tests used:
# [1] = tested on: child suffering pattern sensitivity-induced seizures; conditions: one child, resistant to anticonvulsive treatment; cited from earlier work
# [2] = tested on: self-induced photosensitive seizures; conditions: four cases; cited from earlier work
# [3] = tested on: children and adults with Lennox-Gastaut syndrome (LGS); assay: Randomized, double-blind, placebo-controlled trial of adjunctive fenfluramine oral solution: seizure frequency from caregiver diary; type: in vivo, human; conditions: for median reduction in monthly drop seizures: 2 week titration plus 12 week maintenance, placebo 7.8% (7.6% elsewhere in the source); for reduction from baseline of generalized tonic-clonic (GTC) seizures: placebo negative 3.7%, p less than 0.001; for reduction from baseline of tonic-atonic seizures: placebo 6.8%, p 0.0455; for proportion of subjects with a 25% or more reduction in monthly drop seizures: titration plus maintenance (week 0-14), placebo 31%, p 0.007
# Description: A randomized, double-blind, placebo-controlled trial was conducted to assess the effect of administering fenfluramine hydrochloride as an adjunctive therapy as an oral solution to children and adults with Lennox-Gastaut syndrome (LGS). The study assessed the effect of such administration on seizures experienced by the subjects.
# The fenfluramine hydrochloride was supplied as an oral solution in concentrations of 1.25, 2.5, and 5 mg/mL. Subjects were randomized to receive 1 of 2 doses of fenfluramine hydrochloride (0.2 mg/kg/day, 0.8 mg/kg/day; maximum dose: 30 mg/day) or placebo. Study medication were administered twice a day (BID) in equally divided doses. (Note that subjects taking concomitant stiripentol [STP] were randomized to 0.5 mg/kg/day, maximum dose 20 mg/day, or equivalent volume of placebo. Subjects randomized to 0.5 mg/kg/day were included in analyses with the subjects randomized to 0.8 mg/kg/day not taking STP.)
# Seizures that result in a drop are defined as seizures involving the entire body, trunk, or head that led to a fall, injury, slumping in a chair, or the subject's head hitting a surface or that could have led to a fall or injury, depending on the patient's position at the time of the seizure.
# The cohort included 263 randomized subjects from the United States, Canada, Europe, and Australia. 87 were randomized into 0.7 mg/kg/day of fenfluramine hydrochloride, 89 were randomized into 0.2 mg/kg/day of fenfluramine hydrochloride, and 87 were randomized into a placebo.
# The administration was conducted for 20 weeks. There was a 4-week baseline, a 2-week titration, a 12-week maintenance, and a 2-week taper or transition period.
# The 4-week Baseline Period consisted of the establishment of initial eligibility during a screening visit to include an assessment of cardiac parameters (ECG and ECHO), followed by an observation period where subjects were assessed for baseline seizure frequency based on recordings of daily seizure activity entered into a diary. Upon completion of the Baseline Period, subjects who qualified for the study were randomized (1:1:1) in a double-blind manner to receive 1 of 2 doses of fenfluramine hydrochloride (0.2 mg/kg/day, […]; maximum dose: 30 mg/day [or 0.5 mg/kg/day, maximum 20 mg/day, for subjects taking concomitant STP]) or placebo. Randomization was stratified by weight (<37.5 kilograms [kg], ≥37.5 kg) to ensure balance across treatment arms, and at least 25% of subjects will be in each weight group. All subjects were titrated to their blinded randomized dose over a 2-week Titration Period. Following titration, subjects continued treatment at their randomly assigned dose over a 12-week Maintenance Period. Total treatment time from the beginning of the Titration Period through the end of the Maintenance Period is 14 weeks. Subjects had ECG and ECHO assessments at weeks 6 and 14 during the Maintenance Period. At the end of the Maintenance Period (or early discontinuation), all subjects underwent a blinded 2-week taper or transition period (Post-Dosing Follow-Up) depending on whether they exit the study or are enrolled in Part 2, the long-term open-label extension, respectively.
# Change in seizure frequency was assessed as the drops between baseline and the combined Titration and Maintenance Periods (T+M). Also assessed was the proportion of subjects who achieve a ≥50% reduction from baseline in the frequency of seizures that result in drops. Also assessed was changes in the Clinical Global Impression—Improvement rating, as assessed by the Principal Investigator.
# Primary Efficacy Analysis: The primary efficacy endpoint for Part 1 is the percent change in frequency of seizures that result in drops (DSF: drop seizure frequency) per 28 days between the T+M and Baseline periods in Cohort A. The DSF will be calculated from all available data collected during the Baseline and treatment periods without imputation. […]
# [4] = tested on: children with refractory epilepsy; conditions: 0.5 to 1 mg/kg/day; cited from earlier work
# [5] = tested on: children and adults with Lennox-Gastaut syndrome (LGS); assay: Same trial: Clinical Global Impression-Improvement (CGI-I) rating by the Principal Investigator; type: in vivo, human; conditions: 0.7 mg/kg/day; placebo 6.3%; p 0.0007
# From the text: The diagnosing can also involve a clinician's impression of symptoms. As used herein, the term “clinician” includes not only medical and psychological professions such as physicians, psychologists, psychiatrists, and nurses, but also non-professionals who observe the patient, such as a family member who resides with the patient. In some cases, the clinician is a medical or psychological professional. […] Instead, the “impression of symptoms” includes, for example, the clinician's subjective assessment of whether the overall condition of the patient has improved, worsened, or remained constant. In some cases the clinician's impression of symptoms is collected using a Clinical Global Impression (CGI) rating scale, which can include the section about severity of illness (CGI-S), global improvement (CGI-I), and efficacy index (CGI-E). […] By comparing the numerical responses over time, an assessment of the effect of the administering can be determined.
# Change in seizure frequency was assessed as the drops between baseline and the combined Titration and Maintenance Periods (T+M). Also assessed was the proportion of subjects who achieve a ≥50% reduction from baseline in the frequency of seizures that result in drops. Also assessed was changes in the Clinical Global Impression—Improvement rating, as assessed by the Principal Investigator. […]
# [6] = tested on: children and adults with Lennox-Gastaut syndrome (LGS); assay: Same trial: safety (adverse events, ECG, ECHO); type: in vivo, human
# LGS patients = conditions: cited from earlier work; for reduction in seizures associated with drops: 20 mg/kg/day
# [7] = 0.7 mg/kg/day, listed as Fenfluramine
smiles,measurement,setting,value
"CCNC(C)Cc1cccc(C(F)(F)F)c1 (racemic) [fenfluramine, (RS)—N-ethyl-1-[3-(trifluoromethyl)phenyl]propan-2-amine]",effect on self-induced pattern sensitivity-induced seizures,[1],successfully terminated these self-induced seizures
same,response of self-induced photosensitive seizures,[2],responded to treatment
same,median reduction in monthly drop seizures,"[3]; 0.2 mg/kg/day, p 0.0915",14.2%
same,reduction from baseline of generalized tonic-clonic (GTC) seizures,[3]; 0.2 mg/kg/day,58.2%
same,reduction from baseline of generalized tonic-clonic (GTC) seizures,"[3]; 0.2 mg/kg/day, listed as Fenfluramine",58%
same,median reduction in monthly drop seizures,"[3]; 0.7 mg/kg/day, p 0.0012",26.5%
same,Hodges-Lehmann EMD (estimated median difference) from placebo in frequency of seizures associated with a drop,"[3]; 0.7 mg/kg/day, p 0.0013",19.9%
same,reduction from baseline of tonic-atonic seizures,[3]; 0.7 mg/kg/day,46.7%
same,reduction from baseline of tonic-atonic seizures,[3]; [7],47%
same,reduction from baseline of tonic seizures,"[3]; 0.7 mg/kg/day, placebo 13.3%, p 0.0601",31.3%
same,reduction from baseline of generalized tonic-clonic (GTC) seizures,[3]; 0.7 mg/kg/day,45.7%
same,reduction from baseline of generalized tonic-clonic (GTC) seizures,[3]; [7],46%
same,proportion of subjects with a 25% or more reduction in monthly drop seizures,[3]; 0.7 mg/kg/day,51.7%
same,effect on number of seizures,[4],reduction in the number of seizures
same,"proportion of patients much or very much improved, CGI-I Investigator Rating",[5],26.3%
same,subjects with at least one serious treatment emergent adverse event (SAE),"[6]; 0.7 mg/kg/day, placebo 4.6%",11.7%
same,tolerability,"[6]; both doses, 14 weeks of treatment",generally well tolerated
same,cases of valvular heart disease or pulmonary arterial hypertension,"[6]; both doses, ECHO monitoring",No cases of valvular heart disease or pulmonary arterial hypertension were observed
O=C(c1cccnc1-c1ccncc1)N1CCC(O)(Cc2ccccc2)CC1 [Soticlestat],reduction in drop seizures,"LGS patients; Takeda Pharmaceuticals 2020, not statistically significant",14.8%
C=C(C)[C@@H]1CCC(C)=C[C@H]1c1c(O)cc(CCCCC)cc1O [cannabidiol],reduction in seizures associated with drops,"LGS patients; Devinksy 2018, p 0.005",21.6%
same,reduction in seizures associated with drops,"LGS patients; Thiele 2018, p 0.0135",17.2%
"CCNC(C)Cc1cccc(C(F)(F)F)c1 (stereo not shown) [fenfluramine HCl, fenfluramine hydrochloride]",median reduction in monthly drop seizures,"[3]; 0.2 mg/kg/day, p 0.0915",13.2%
same,median reduction in monthly drop seizures,"[3]; 0.7 mg/kg/day, p 0.0012",26.5%
same,proportion of subjects with a 25% or more reduction in monthly drop seizures,[3]; 0.7 mg/kg/day,51.7%
same,"proportion of patients much or very much improved, CGI-I Investigator Rating",[5],26.3%
